The compounds below were run against T1, wild-type HIV-1 protease (Human immunodeficiency virus type 1 group M subtype B, UniProt P04585) (assay: Assay for Inhibition of Microbial Expressed HIV Protease). Settings: E. coli expressed wild-type HIV-1 protease, peptide substrate cleavage, LC-MS readout; mean of at least two independent experiments; read-out: HIV Pr Enzyme HIV1 PR IC50.
T1 construct: Escherichia coli expressed wild-type HIV-1 protease protein; made in house; host or cells: Escherichia coli
Assay type: biochemical
Description: Assay for Inhibition of Microbial Expressed HIV Protease
Inhibition of Escherichia coli expressed wild-type HIV-1 protease protein was carried out with a peptide substrate [Val-Ser-Gln-Asn-(βnaphtyl)Ala-Pro-Ile-Val]. The inhibitor compound was preincubated with HIV-1 protease enzyme in assay buffer (50 mM sodium acetate, pH 5.5, 100 mM NaCl, and 0.1% BSA) for 30 minutes at room temperature. Peptide substrate was added to […] in a total volume of 20 μL containing 20 pM HIV-1 protease (final) after which the reaction was incubated for 1 hour at 30° C. The reaction was quenched by the addition of formic acid and HIV protease inhibitor indinavir to 0.012% and 150 nM final concentrations, respectively. Product formation was determined after separation of product and substrate on a ZORBAX Eclipse XDB-C18 column (Aligent Technologies, Santa Clara, Calif., USA) connected to an API 4000™ mass spectrometer (AB Sciex, Pte. Ltd., Concord Ontario, Canada) with multiple reaction monitoring (transitions were 644.5/428.9 and 615.4/422.2 (M1/M3) for product and indinavir respectively). The extent of inhibition of the reaction was determined from the peak area of the products. Analysis of the products, independently synthesized, provided quantitation standards and confirmation of the product composition.

SMILES	IC50 [nM]
COC(=O)N[C@@H](Cc1cccc(Cl)c1)C(=O)NC(CCCN1C(=N)N[C@](CC(C)C)(c2ccccc2)C1=O)CC1CC1 (stereo partly drawn) [Example 30, 3-chloro-N-{1-(cyclopropylmethyl)-4-[(4R)-2-imino-4-(2-methylpropyl)-5-oxo-4-phenylimidazolidin-1-yl]butyl}-N-alpha-(methoxycarbonyl)-L-phenylalaninamide]	97
COC(=O)N[C@@H](Cc1ccccc1Cl)C(=O)NC(CCCN1C(=N)N[C@](CC(C)C)(c2ccccc2)C1=O)CC1CC1 (stereo partly drawn) [Example 31, 2-chloro-N-{1-(cyclopropylmethyl)-4-[(4R)-2-imino-4-(2-methylpropyl)-5-oxo-4-phenylimidazolidin-1-yl]butyl}-N-alpha-(methoxycarbonyl)-L-phenylalaninamide_]	80
COC(=O)N[C@@H](Cc1cccc(Cl)c1)C(=O)N[C@H](CCCN1C(=N)N[C@](CC(C)C)(c2ccccc2)C1=O)C1CC1 [Example 32, 3-chloro-N-{(1R)-1-cyclopropyl-4-[(4R)-2-imino-4-(2-methylpropyl)-5-oxo-4-phenylimidazolidin-1-yl]butyl}-N-alpha-(methoxycarbonyl)-L-phenylalaninamide]	43
COC(=O)N[C@@H](Cc1ccccc1Cl)C(=O)N[C@H](CCCN1C(=N)N[C@](CC(C)C)(c2ccccc2)C1=O)C1CC1 [Example 33, 2-chloro-N-{(1R)-1-cyclopropyl-4-[(4R)-2-imino-4-(2-methylpropyl)-5-oxo-4-phenylimidazolidin-1-yl]butyl}-N-alpha-(methoxycarbonyl)-L-phenylalaninamide]	23
COC(=O)N[C@@H](Cc1ccccc1Cl)C(=O)N[C@@H](C)CCCN1C(=N)N[C@](CC(C)C)(c2ccccc2)C1=O [Example 34, 2-chloro-N-{(1S)-4-[(4R)-2-imino-4-(2-methylpropyl)-5-oxo-4-phenylimidazolidin-1-yl]-1-methylbutyl}-N-alpha-(methoxycarbonyl)-L-phenylalaninamide]	18
COC(=O)N[C@@H](Cc1cccc(Cl)c1)C(=O)N[C@@H](C)CCCN1C(=N)N[C@](CC(C)C)(c2ccccc2)C1=O [Example 35, 3-chloro-N-{(1S)-4-[(4R)-2-imino-4-(2-methylpropyl)-5-oxo-4-phenylimidazolidin-1-yl]-1-methylbutyl}-N-alpha-(methoxycarbonyl)-L-phenylalaninamide]	20
COC(=O)N[C@@H](Cc1ccccc1)C(=O)N[C@H](CCCN1C(=N)N[C@](CC(C)C)(c2ccccc2)C1=O)C1CC1 [Example 36, N-{(1R)-1-cyclopropyl-4-[(4R)-2-imino-4-(2-methylpropyl)-5-oxo-4-phenylimidazolidin-1-yl]butyl}-N-alpha-(methoxycarbonyl)-L-phenylalaninamide]	9
COC(=O)N[C@@H](Cc1ccc(Cl)cc1)C(=O)N[C@@H](C)CCCN1C(=N)N[C@](CC(C)C)(c2ccccc2)C1=O [Example 37, 4-chloro-N-{(1S)-4-[(4R)-2-imino-4-(2-methylpropyl)-5-oxo-4-phenylimidazolidin-1-yl]-1-methylbutyl}-N-alpha-(methoxycarbonyl)-L-phenylalamnamide]	61
COC(=O)N[C@@H](Cc1cccc2ccccc12)C(=O)N[C@@H](C)CCCN1C(=N)N[C@](CC(C)C)(c2ccccc2)C1=O [Example 38, methyl [(1S)-2-({(1S)-4-[(4R)-2-imino-4-(2-methylpropyl)-5-oxo-4-phenylimidazolidin-1-yl]-1-methylbutyl}amino)-1-(naphthalen-1-ylmethyl)-2-oxoethyl]carbamate]	23
COC(=O)N[C@@H](Cc1ccccc1OC)C(=O)N[C@@H](C)CCCN1C(=N)N[C@](CC(C)C)(c2ccccc2)C1=O [Example 39, N-{(1S)-4-[(4R)-2-imino-4-(2-methylpropyl)-5-oxo-4-phenylimidazolidin-1-yl]-1-methylbutyl}-2-methoxy-N-alpha-(methoxycarbonyl)-L-phenylalaninamide]	3
COC(=O)N[C@@H](Cc1cccc(OC)c1)C(=O)N[C@@H](C)CCCN1C(=N)N[C@](CC(C)C)(c2ccccc2)C1=O [Example 40, N-{(1S)-4-[(4R)-2-imino-4-(2-methylpropyl)-5-oxo-4-phenylimidazolidin-1-yl]-1-methylbutyl}-3-methoxy-N-alpha-(methoxycarbonyl)-L-phenylalaninamide]	54
COC(=O)N[C@@H](CC1CCCCC1)C(=O)N[C@@H](C)CCCN1C(=N)N[C@](CC(C)C)(c2ccccc2)C1=O [Example 41, methyl [(1S)-1-(cyclohexylmethyl)-2-({(1S)-4-[(4R)-2-imino-4-(2-methylpropyl)-5-oxo-4-phenylimidazolidin-1-yl]-1-methylbutyl}amino)-2-oxoethyl]carbamate]	31
COC(=O)N[C@@H](Cc1ccc2ccccc2c1)C(=O)N[C@@H](C)CCCN1C(=N)N[C@](CC(C)C)(c2ccccc2)C1=O [Example 42, methyl ((S)-1-(((S)-5-((R)-2-imino-4-isobutyl-5-oxo-4-phenylimidazolidin-1-yl)pentan-2-yl)amino)-3-(naphthalen-2-yl)-1-oxopropan-2-yl)carbamate]	46
COC(=O)N[C@@H](Cc1cccc(Cl)c1)C(=O)N[C@H](CCCN1C(=N)N[C@](CC(C)C)(c2ccccc2)C1=O)C(C)C [Example 43, 3-chloro-N-[(1R)-4-[(4R)-2-imino-4-(2-methylpropyl)-5-oxo-4-phenylimidazolidin-1-yl]-1-(1-methylethyl)butyl]-N-alpha-(methoxycarbonyl)-L-phenylalaninamide]	5
COC(=O)N[C@@H](Cc1ccccc1Cl)C(=O)N[C@H](CCCN1C(=N)N[C@](CC(C)C)(c2ccccc2)C1=O)C(C)C [Example 44, 2-chloro-N-[(1R)-4-[(4R)-2-imino-4-(2-methylpropyl)-5-oxo-4-phenylimidazolidin-1-yl]-1-(1-methylethyl)butyl]-N-alpha-(methoxycarbonyl)-L-phenylalaninamide]	20
COC(=O)N[C@@H](Cc1ccccc1)C(=O)N[C@H](CCCN1C(=N)N[C@](CC(C)C)(c2ccccc2)C1=O)C(C)C [Example 45, N-[(1R)-4-[(4R)-2-imino-4-(2 methylpropyl)-5-oxo-4-phenylimidazolidin-1-yl]-1-(1 methylethyl)butyl]-N-alpha-(methoxycarbonyl)-L-phenylalaninamide]	27
COC(=O)N[C@@H](Cc1ccccc1)C(=O)N[C@H](CCCN1C(=N)N[C@](CC(C)C)(c2ccccc2)C1=O)C(F)(F)F [Example 46, N-[(1R)-4-[(4R)-2-imino-4-(2-methylpropyl)-5-oxo-4-phenylimidazolidin-1-yl]-1-(trifluoromethyl)butyl]-N-alpha-(methoxycarbonyl)-L-phenylalaninamide]	32
CC[C@@H](CCCN1C(=N)N[C@](CC(C)C)(c2ccccc2)C1=O)NC(=O)[C@H](Cc1ccccc1)NC(=O)OC [Example 47, N-{(1S)-1-ethyl-4-[(4R)-2-imino-4-(2-methylpropyl)-5 oxo-4-phenylimidazolidin-1 yl]butyl}-N-alpha-(methoxycarbonyl)-L-phenylalaninamide]	22
CC[C@@H](CCCN1C(=N)N[C@](CC(C)C)(c2ccccc2)C1=O)NC(=O)[C@H](Cc1ccc(Cl)cc1)NC(=O)OC [Example 48, 4-chloro-N-{(1S)-1-ethyl-4-[(4R)-2-imino-4-(2-methylpropyl)-5-oxo-4-phenylimidazolidin-1-yl]butyl}-N-alpha-(methoxycarbonyl)-L-phenylalaninamide]	14
CC[C@@H](CCCN1C(=N)N[C@](CC(C)C)(c2ccccc2)C1=O)NC(=O)[C@H](Cc1cccc(Cl)c1)NC(=O)OC [Example 49, 3-chloro-N-{(1S)-1-ethyl-4-[(4R)-2-imino-4-(2-methylpropyl)-5-oxo-4-phenylimidazolidin-1-yl]butyl}-N-alpha-(methoxycarbonyl)-L-phenylalaninamide]	15
CC[C@@H](CCCN1C(=N)N[C@](CC(C)C)(c2ccccc2)C1=O)NC(=O)[C@H](Cc1ccccc1Cl)NC(=O)OC [Example 50, 2-chloro-N-{(1S)-1-ethyl-4-[(4R)-2-imino-4-(2-methylpropyl)-5-oxo-4-phenylimidazolidin-1-yl]butyl}-N-alpha-(methoxycarbonyl)-L-phenylalaninamide]	6
COC(=O)N[C@@H](Cc1ccccc1)C(=O)NCCC[C@H](C1CC1)N1C(=N)N[C@](CC(C)C)(c2ccccc2)C1=O [Example 51, N-{(4R)-4-cyclopropyl-4-[(4R)-2-imino-4-(2-methylpropyl)-5-oxo-4-phenylimidazolidin-1-yl]butyl}-N-alpha-(methoxycarbonyl)-L-phenylalaninamide]	7
COC(=O)N[C@@H](Cc1ccccc1)C(=O)NCCC[C@@H](C1CC1)N1C(=N)N[C@](CC(C)C)(c2ccccc2)C1=O [Example 52, N-{(4S)-4-cyclopropyl-4-[(4R)-2-imino-4-(2-methylpropyl)-5-oxo-4-phenylimidazolidin-1-yl]butyl}-N-alpha-(methoxycarbonyl)-L-phenylalaninamide]	605
